Consider eight compounds from PubChem BioAssay (NCI).

Test systems include HL-60(TB) leukemia; 786-0 renal; MOLT-4 leukemia; M19-MEL melanoma; SNB-75 CNS; DMS 114 small cell lung; OVCAR-4 ovarian; U251 CNS; SF-539 CNS; IGROV1 ovarian.
Common to all, as to assay: NCI tumour cell line growth inhibition, 48 h

“And” between values parts separate entries of the source, which are not always exact repeats. Equal values may be shown once.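 Dose response: 5 concentrations. Exposure: 48 h. Format: 96-well plates. Endpoint: linear interpolation; highest concentration if not reached. Here, GI50 denotes the concentration required for 50% inhibition of growth. TGI: concentration producing complete growth inhibition.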

Regarding `[Cl-].[Gd+3].[O-]/N=C(\c1ccccc1)c1ccccn1.[O-]/N=C(\c1ccccc1)c1ccccn1.[O-]/N=C(\c1ccccc1)c1ccccn1`, the GI50 in the assay on HL-60(TB) leukemia is 11.7 µM; in the assay with 786-0 renal, 57.8 µM; with MOLT-4 leukemia it was 40.5 µM; with M19-MEL melanoma, 52.7 µM; in the assay with SNB-75 CNS it was 17.5 µM; in the assay on DMS 114 small cell lung, 36.8 µM. The GI50 in the assay with OVCAR-4 ovarian was 43.7 µM; in the assay with U251 CNS it was 68.9 µM; in the assay on SF-539 CNS, above 100 µM; with IGROV1 ovarian it was 81.4 µM. Besides, the TGI in the assay on HL-60(TB) leukemia is above 100 µM; with 786-0 renal, above 100 µM; in the assay on MOLT-4 leukemia, above 100 µM; with M19-MEL melanoma, above 100 µM; with SNB-75 CNS, 71.9 µM; in the assay on DMS 114 small cell lung, above 100 µM. In addition, the TGI in the assay with OVCAR-4 ovarian, with U251 CNS, in the assay with SF-539 CNS and in the assay on IGROV1 ovarian was above 100 µM each time.
Take `CN(C)c1ccc(O[Si](Oc2ccc(N(C)C)cc2)(Oc2ccc(N(C)C)cc2)Oc2ccc(N(C)C)cc2)cc1`: the TGI in the assay with HL-60(TB) leukemia, with 786-0 renal, in the assay on MOLT-4 leukemia, in the assay on M19-MEL melanoma, with SNB-75 CNS and in the assay on DMS 114 small cell lung was above 100 µM throughout. For the same compound, the TGI in the assay with OVCAR-4 ovarian, in the assay with U251 CNS, with SF-539 CNS and in the assay with IGROV1 ovarian was above 100 µM throughout.
In the case of `COC(=O)c1sc(=NC(=S)N2CCCCC2)sc1C(=O)OC`, the TGI in the assay on HL-60(TB) leukemia, with 786-0 renal, with MOLT-4 leukemia, with M19-MEL melanoma, in the assay with SNB-75 CNS and with DMS 114 small cell lung was above 100 µM throughout. Also, the TGI with OVCAR-4 ovarian, with U251 CNS, with SF-539 CNS and with IGROV1 ovarian was above 100 µM in each case.
In the case of `O=NN(CCCl)C(=O)NC1CCCCC1`, the GI50 with HL-60(TB) leukemia is 41.5 µM and 41 µM; in the assay on 786-0 renal, 32 µM; with MOLT-4 leukemia, 20.7 µM and 36.1 µM; in the assay on M19-MEL melanoma it was 27.4 µM and 60.2 µM; with SNB-75 CNS, 23.3 µM and 42.1 µM; with DMS 114 small cell lung it was 20.7 µM and 70.3 µM. Moreover, the GI50 in the assay with OVCAR-4 ovarian was 20 µM; in the assay with U251 CNS, 15.8 µM and 64.7 µM; in the assay on SF-539 CNS it was 16.4 µM and 33 µM; in the assay with IGROV1 ovarian it was 19.7 µM and 73.2 µM. Also, the TGI was 69.9 µM and > 80.6 µM and 83.8 µM with HL-60(TB) leukemia; 33.9 µM and 65.9 µM and 68.6 µM in the assay with 786-0 renal; 38.4 µM and 99.1 µM and 80.3 µM in the assay on MOLT-4 leukemia; 81.5 µM and 123 µM and 163 µM with M19-MEL melanoma; 64.5 µM and 112 µM and 108 µM in the assay on SNB-75 CNS; 38.8 µM and 112 µM and 183 µM with DMS 114 small cell lung. The TGI was 90.8 µM and 155 µM and 87.1 µM with OVCAR-4 ovarian; 51.2 µM and 103 µM and 173 µM with U251 CNS; 34 µM and 84.4 µM and 124 µM with SF-539 CNS; 57.4 µM and 150 µM and 162 µM with IGROV1 ovarian.
With `Nc1nc(=S)[nH]c(C(=O)Nc2nccs2)c1-c1ccccc1`, the TGI in the assay on HL-60(TB) leukemia, in the assay on 786-0 renal, with MOLT-4 leukemia, in the assay on M19-MEL melanoma, in the assay on SNB-75 CNS and in the assay on DMS 114 small cell lung was above 100 µM in each case. Also, the TGI in the assay on OVCAR-4 ovarian, in the assay on U251 CNS, in the assay on SF-539 CNS and in the assay with IGROV1 ovarian was above 100 µM throughout.
Take `O=C(CC1=Nc2nnc(-c3nnc4n3C(=O)C(CC(=O)C3CC3)=N4)n2C1=O)C1CC1`: the TGI with HL-60(TB) leukemia, in the assay on 786-0 renal, in the assay with MOLT-4 leukemia, in the assay with M19-MEL melanoma, in the assay on SNB-75 CNS and in the assay with DMS 114 small cell lung was above 100 µM throughout. Further, the TGI in the assay with OVCAR-4 ovarian, in the assay on U251 CNS, in the assay with SF-539 CNS and in the assay with IGROV1 ovarian was above 100 µM throughout.
For the compound `OCC(O)C(O)C(O)C(O)c1nn[nH]n1` (stereo not given), the TGI in the assay on HL-60(TB) leukemia is above 100 µM; in the assay with 786-0 renal it was above 100 µM; with MOLT-4 leukemia it was above 100 µM; in the assay with M19-MEL melanoma it was above 100 µM; in the assay with SNB-75 CNS, 88.1 µM and > 100 µM; with DMS 114 small cell lung, above 100 µM. Also, the TGI with OVCAR-4 ovarian, in the assay with U251 CNS, with SF-539 CNS and with IGROV1 ovarian was above 100 µM in each case.
As for `CC(=O)[O-].[Mn+3].[O-]c1ccc(Cl)cc1C=NCCN=Cc1cc(Cl)ccc1[O-]`, the GI50 with HL-60(TB) leukemia was 50.7 µM; with 786-0 renal, above 100 µM; in the assay with MOLT-4 leukemia it was above 100 µM; in the assay with M19-MEL melanoma, above 100 µM; in the assay on SNB-75 CNS it was above 100 µM; in the assay with DMS 114 small cell lung it was above 100 µM. Besides, the GI50 in the assay on OVCAR-4 ovarian was above 100 µM; in the assay on U251 CNS, above 100 µM; in the assay on SF-539 CNS, 36 µM; with IGROV1 ovarian, 7.99 µM. Also, the TGI in the assay with HL-60(TB) leukemia, in the assay on 786-0 renal, in the assay with MOLT-4 leukemia, in the assay on M19-MEL melanoma, in the assay with SNB-75 CNS and with DMS 114 small cell lung was above 100 µM each time. In addition, the TGI in the assay with OVCAR-4 ovarian was above 100 µM; in the assay on U251 CNS, above 100 µM; in the assay on SF-539 CNS it was 74.3 µM; with IGROV1 ovarian, 54.6 µM.
